Laboratory results taken from patent US20230271950A1, “ANTIBACTERIAL PICOLINAMIDE COMPOUNDS” (University of Notre Dame Du Lac, priority 2020, published 2023).
≈ marks a conversion by molar mass, not a printed value. Like-named read-outs stand apart in the source and are kept apart here.

Tests used:
Fusobacterium nucleatum = assay: MIC against gut bacterium Fusobacterium nucleatum; type: cell-based; settings: Fusobacterium nucleatum, Fusobacterium nucleatum strain HM-992; Table 7; read-out: MIC
MRSA (NRS70, NRS119) = assay: MIC against MRSA strains; type: cell-based, Staphylococcus aureus; settings: Staphylococcus aureus, MRSA NRS70; Table 7; read-out: MIC
E. faecium NCTC7171 = assay: MIC against E. faecium; type: cell-based, Enterococcus faecium; settings: Enterococcus faecium, NCTC7171; E. faecium NCTC 7171; Table 10, unit inferred; read-out: Activity (MIC) against E. faecium
C. difficile = assay: MIC by broth microdilution against C. difficile strains; type: cell-based, Clostridioides difficile; settings: for MIC: Clostridioides difficile, read-out: MIC
Lactobacillus gasseri = assay: MIC against gut bacterium Lactobacillus gasseri; type: cell-based; settings: Lactobacillus gasseri strain HM-644; Table 7; read-out: MIC
Veillonella sp. HM-49 = assay: MIC against gut bacterium Veillonella sp.; type: cell-based; settings: SP.HM49; Veillonella sp. strain HM-49; Table 7; read-out: MIC
Lactobacillus reuteri = assay: MIC against gut bacterium Lactobacillus reuteri; type: cell-based; settings: Limosilactobacillus reuteri; Lactobacillus reuteri strain HM-102; Table 7; read-out: MIC
Bifidobacterium longum = assay: MIC against gut bacterium Bifidobacterium longum; type: cell-based; settings: Bifidobacterium longum, Bifidobacterium longum strain HM-846; Table 7; read-out: MIC
Bacteroides fragilis = assay: MIC against gut bacterium Bacteroides fragilis; type: cell-based; settings: Bacteroides fragilis, Bacteroides fragilis strain HM-709; Table 7; read-out: MIC
Corynebacterium spp. = assay: MIC against gut bacterium Corynebacterium spp.; type: cell-based; settings: Corynebacterium, Corynebacterium spp. strain HM-784; Table 7
Eubacterium sp. = assay: MIC against gut bacterium Eubacterium sp.; type: cell-based; settings: Eubacterium, Eubacterium sp. strain HM-178; Table 7; read-out: MIC
S. aureus ATCC29213 = assay: MIC against MSSA; type: cell-based, Staphylococcus aureus; settings: Staphylococcus aureus; MSSA ATCC 29213; Table 10, unit inferred; read-out: Activity (MIC) against S. aureus

`O=C(Nc1ncco1)c1cc(Oc2cccc(OC(F)(F)F)c2)ccn1` [Compound 108, N-(Oxazol-2-yl)-4-(3-(trifluoromethoxy)phenoxy)picolinamide] was tested, and the MIC (Fusobacterium nucleatum) was 8 µg/mL (≈ 21.9 µM), the MIC (MRSA (NRS70, NRS119)) was 64 µg/mL (≈ 175 µM) and the MIC (E. faecium NCTC7171) was 64 µg/mL (≈ 175 µM). The MIC (C. difficile; ATCC43255, C. difficile ATCC43255, Table 7) was 1 µg/mL (≈ 2.74 µM), the MIC (C. difficile; ATCC43598, C. difficile ATCC43598, Table 7) was 0.5 µg/mL (≈ 1.37 µM) and the MIC (C. difficile; BAA1801, C. difficile BAA-1801, Table 7) was 0.25 µg/mL (≈ 0.684 µM). It also gave an MIC (C. difficile; BAA1803, C. difficile BAA-1803, Table 7) of 0.5 µg/mL (≈ 1.37 µM), an MIC (C. difficile; BAA1804, C. difficile BAA-1804, Table 7) of 0.25 µg/mL (≈ 0.684 µM) and an MIC (C. difficile; BAA1812, C. difficile BAA-1812, Table 7) of 1 µg/mL (≈ 2.74 µM). The MIC (C. difficile; BAA1814, C. difficile BAA-1814, Table 7) was 0.25 µg/mL (≈ 0.684 µM), the MIC (C. difficile; BAA1870, C. difficile BAA-1870, Table 7) was 0.5 µg/mL (≈ 1.37 µM) and the MIC (C. difficile; C. difficile 23691 (VR, vancomycin-resistant), Table 7) was 0.25 µg/mL (≈ 0.684 µM). It also gave an MIC (C. difficile; C. difficile 23828 (FR, fidaxomicin-resistant), Table 7) of 1 µg/mL (≈ 2.74 µM), an MIC (C. difficile; C. difficile 24531 (VR, vancomycin-resistant), Table 7) of 0.25 µg/mL (≈ 0.684 µM) and an MIC (C. difficile; C. difficile 24923 (VR, vancomycin-resistant), Table 7) of 0.25 µg/mL (≈ 0.684 µM). For the same compound, the MIC (C. difficile; C. difficile 26675 (MR, metronidazole-resistant), Table 7) was 1 µg/mL (≈ 2.74 µM), the MIC (C. difficile; C. difficile 27081 (FR, fidaxomicin-resistant), Table 7) was 0.25 µg/mL (≈ 0.684 µM) and the MIC (C. difficile; C. difficile 27173 (MR, metronidazole-resistant), Table 7) was 0.5 µg/mL (≈ 1.37 µM). It also gave an MIC (C. difficile; C. difficile NR49292, Table 7) of 0.25 µg/mL (≈ 0.684 µM), an MIC (C. difficile; C. difficile NR49294, Table 7) of 0.25 µg/mL (≈ 0.684 µM) and an MIC (C. difficile; C. difficile NR49302, Table 7) of 1 µg/mL (≈ 2.74 µM). For the same compound, the MIC (C. difficile; C. difficile NR49305, Table 7) was 0.25 µg/mL (≈ 0.684 µM), the MIC (C. difficile; C. difficile NR49310, Table 7) was 0.5 µg/mL (≈ 1.37 µM) and the MIC (C. difficile; C. difficile NR49318, Table 7) was 0.5 µg/mL (≈ 1.37 µM). For the same compound, the MIC (C. difficile; C. difficile, Table 8) was 1 µg/mL (≈ 2.74 µM), the Selectivity (C. difficile; MIC MRSA NRS70/MIC C. difficile ATCC43255, Table 7) was 64 and the Selectivity (C. difficile; Table 8) was 64. It also gave an MIC (Lactobacillus gasseri) greater than 16 µg/mL, an MIC (Veillonella sp. HM-49) of 16 µg/mL (≈ 43.8 µM) and an MIC (Lactobacillus reuteri) of 4 µg/mL (≈ 11 µM). The MIC (Bifidobacterium longum) was 16 µg/mL (≈ 43.8 µM), the MIC (Bacteroides fragilis) was 8 µg/mL (≈ 21.9 µM) and the MIC (Corynebacterium spp.) was greater than 16 µg/mL. For the same compound, the MIC (Eubacterium sp.) was 8 µg/mL (≈ 21.9 µM) and the MIC (S. aureus ATCC29213) was 64 µg/mL (≈ 175 µM).
